System: 299254-011-R-J1-PDC complex spheroid viability
Assay: Anticancer human tumor 299254-011-R-J1-PDC patient-derived melanoma cell line growth inhibition [POLQ]
Conditions: for IC50: curve of first compound; for viability, T/C: stronger effect = lower value
Summary of the method: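 Three-cell-type spheroids modelling solid tumor plus stroma served as the readout system; POL inhibitors were tested individually and in combination, concentration ranges set by clinical Cmax where known.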

[1] = second compound 0.0316 µM, first compound 0.0316 µM
[2] = second compound 0.0316 µM, first compound 0.1 µM
[3] = second compound 0.0316 µM, first compound 0.316 µM
[4] = second compound 0.0316 µM, first compound 1 µM
[5] = second compound 0.0316 µM, first compound 3.16 µM
[6] = second compound 0.0316 µM, first compound 10 µM
[7] = second compound 0.1 µM, first compound 0.0316 µM
[8] = second compound 0.1 µM, first compound 0.1 µM
[9] = second compound 0.1 µM, first compound 0.316 µM
[10] = second compound 0.1 µM, first compound 1 µM
[11] = second compound 0.1 µM, first compound 3.16 µM
[12] = second compound 0.1 µM, first compound 10 µM
[13] = second compound 0.316 µM, first compound 0.0316 µM
[14] = second compound 0.316 µM, first compound 0.1 µM
[15] = second compound 0.316 µM, first compound 0.316 µM
[16] = second compound 0.316 µM, first compound 1 µM
[17] = second compound 0.316 µM, first compound 3.16 µM
[18] = second compound 0.316 µM, first compound 10 µM
[19] = second compound 1 µM, first compound 0.0316 µM
[20] = second compound 1 µM, first compound 0.1 µM
[21] = second compound 1 µM, first compound 0.316 µM
[22] = second compound 1 µM, first compound 1 µM
[23] = second compound 1 µM, first compound 3.16 µM
[24] = second compound 1 µM, first compound 10 µM
[25] = second compound 3.16 µM, first compound 0.0316 µM
[26] = second compound 3.16 µM, first compound 0.1 µM
[27] = second compound 3.16 µM, first compound 0.316 µM
[28] = second compound 3.16 µM, first compound 1 µM
[29] = second compound 3.16 µM, first compound 3.16 µM
[30] = second compound 3.16 µM, first compound 10 µM
[31] = second compound 10 µM, first compound 0.0316 µM
[32] = second compound 10 µM, first compound 0.1 µM
[33] = second compound 10 µM, first compound 0.316 µM
[34] = second compound 10 µM, first compound 1 µM
[35] = second compound 10 µM, first compound 3.16 µM
[36] = second compound 10 µM, first compound 10 µM
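Also: spheroids exposed to drugs for one week before measurement.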
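For viability, T/C in this document: percent viability relative to DMSO vehicle control taken as 100%.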

CNCc1ccc(-c2[nH]c3cc(F)cc4c3c2CCNC4=O)cc1 + Nc1ccc(C#CCN(C(=O)Cc2ncc(C(F)(F)F)cc2C(F)(F)F)c2ccc(F)cc2)nn1
IC50 (second compound 0.0316 µM): > 10 µM | IC50 (second compound 0.1 µM): > 10 µM | IC50 (second compound 0.316 µM): > 10 µM | IC50 (second compound 1 µM): > 10 µM | IC50 (second compound 3.16 µM): > 10 µM | IC50 (second compound 10 µM): > 10 µM | viability, T/C [1]: 108% | viability, T/C [2]: 107% | viability, T/C [3]: 109% | viability, T/C [4]: 122% | viability, T/C [5]: 110% | viability, T/C [6]: 103% | viability, T/C [7]: 115% | viability, T/C [8]: 117% | viability, T/C [9]: 99.8% | viability, T/C [10]: 105% | viability, T/C [11]: 109% | viability, T/C [12]: 109% | viability, T/C [13]: 106% | viability, T/C [14]: 107% | viability, T/C [15]: 96.4% | viability, T/C [16]: 95.7% | viability, T/C [17]: 119% | viability, T/C [18]: 129% | viability, T/C [19]: 113% | viability, T/C [20]: 111% | viability, T/C [21]: 94.4% | viability, T/C [22]: 102% | viability, T/C [23]: 129% | viability, T/C [24]: 114% | viability, T/C [25]: 106% | viability, T/C [26]: 105% | viability, T/C [27]: 110% | viability, T/C [28]: 95.9% | viability, T/C [29]: 124% | viability, T/C [30]: 124% | viability, T/C [31]: 107% | viability, T/C [32]: 96.2% | viability, T/C [33]: 93.1% | viability, T/C [34]: 103% | viability, T/C [35]: 102% | viability, T/C [36]: 94.1%

CCc1cc2c(N3CCc4c(cc(Cn5ccnc5)cc4-c4cn(C)nc4C(F)(F)F)C3=O)ccnc2c(OC)n1 + Nc1ccc(C#CCN(C(=O)Cc2ncc(C(F)(F)F)cc2C(F)(F)F)c2ccc(F)cc2)nn1
IC50 (second compound 0.0316 µM): > 10 µM | IC50 (second compound 0.1 µM): > 10 µM | IC50 (second compound 0.316 µM): > 10 µM | IC50 (second compound 1 µM): > 10 µM | IC50 (second compound 3.16 µM): > 10 µM | IC50 (second compound 10 µM): > 10 µM | viability, T/C [1]: 118% | viability, T/C [2]: 99.3% | viability, T/C [3]: 93.6% | viability, T/C [4]: 115% | viability, T/C [5]: 109% | viability, T/C [6]: 74.3% | viability, T/C [7]: 101% | viability, T/C [8]: 107% | viability, T/C [9]: 91.4% | viability, T/C [10]: 99.2% | viability, T/C [11]: 89.2% | viability, T/C [12]: 73.6% | viability, T/C [13]: 126% | viability, T/C [14]: 100% | viability, T/C [15]: 107% | viability, T/C [16]: 98.9% | viability, T/C [17]: 97.2% | viability, T/C [18]: 79.5% | viability, T/C [19]: 102% | viability, T/C [20]: 114% | viability, T/C [21]: 103% | viability, T/C [22]: 101% | viability, T/C [23]: 89% | viability, T/C [24]: 73.5% | viability, T/C [25]: 96.9% | viability, T/C [26]: 97.2% | viability, T/C [27]: 89.5% | viability, T/C [28]: 100% | viability, T/C [29]: 84.5% | viability, T/C [30]: 76.5% | viability, T/C [31]: 90.4% | viability, T/C [32]: 103% | viability, T/C [33]: 87% | viability, T/C [34]: 80.6% | viability, T/C [35]: 84.8% | viability, T/C [36]: 62.2%

Reference: PubChem BioAssay AID1963849 (Molecular Pharmacology Branch, DTP, NCI, 2024)
